# Measured values: patent publication US20240238268A1, “TREATMENTS AND METHODS FOR TREATING ALZHEIMER'S DISEASE” (Board of Supervisors of Louisiana State University and …, priority 2021, published 2024)
# How the values were obtained:
# aged 3xTg-AD female mice [1] = experiment: Neurovascular coupling: microvessel diameter after whisker stimulation, two-photon laser scanning microscopy; assay type: in vivo, mouse; conditions: TP-064 30 mg/kg for 7 days, IP or PRMT4-AAV knockdown
# Description: FIGS. 11A-11D show neurovascular coupling dysfunction was alleviated with specific PRMT4 inhibitor (TP-064) or PRMT4-AAV knockdown in aged 3xTg-AD female mice. In FIG. 11A, neurovascular coupling was evaluated based on vascular tonicity changes in response to whisker stimulation (30 sec, 4 Hz) via two-photon laser scanning microscopy. FITC-dextran was injected IV for visualization of cerebral microvessels (Z=100 μm depth) in the cortex. In FIG. 11B, vessel diameters were measured before/after whisker stimulation, and before/after TP-064 (30 mg/kg for 7 days, IP) or PRMT4-AAV knockdown.
# Determining if inhibition of PRMT4 can promote neurovascular coupling. […] One reason for this is the loss of neurovascular coupling is associated with the early progression of AD. Whisker-barrel stimulation is a well-established model for examining neurovascular coupling [Rodgers (our in-house collaborator) et al., 2006, 2008, 2009]. The inventors measured cortical microvessel vascular reactivity with two-photon laser scanning microscopy while evoking 30 sec of whisker stimulation in mice. Based on the inventors' findings that aged 3xTg-AD female mice had enhanced PRMT4 expression (FIGS. 2A-3C and 5A-5D), the inventors' results evidence that aged 3xTg-AD female mice presented decreased cortical microvessel diameter as compared to aged 3xTg-AD male mice 30 see (4 Hz) after whisker stimulation. […]
# aged 3xTg-AD female mice [2] = experiment: T-maze spontaneous alternation; assay type: in vivo, mouse; conditions: 30 mg/kg, 7 days, IP
# Description: FIGS. 20A and 20B are two graphs showing PRMT4 inhibitor (TP-064) or AAV knockdown of PRMT4 improved functional learning/memory in aged 3xTg-AD female mice. […] C57 but increased with administration of TP-064 (30 mg/kg, 7 days, IP). In FIG. 20B, in Novel Object Recognition, aged 3xTg-AD female mice had fewer number of entries in the novel zone v. C57. Treatment with TP-064 or brain-specific AAV knockdown of PRMT4 increased the number of entries. T-maze and novel object recognition test were utilized to analyze working/short-term and reference/long-term memory, respectively. * p<0.05 v. C57 via one-way ANOVA with Tukey's post-hoc analyses.
smiles,measurement,setting,value
"CNCCN1CCC(c2cc(CN(C)C(=O)c3cccc(Oc4ccccc4)c3)ccn2)CC1 [TP-064, N-Methyl-N-((2-(1-(2-(methylamino)ethyl)piperidin-4-yl)pyridin-4-yl)methyl)-3-phenoxybenzamide]",microvessel diameter after whisker stimulation,aged 3xTg-AD female mice [1],increased
same,T-maze spontaneous alternation ratio,aged 3xTg-AD female mice [2],increased
